Measurements reported in patent publication US9993494B2, “Compositions and methods for treating fibrotic disease” (eFFECTOR Therapeutics, Inc., priority 2014, dated 2018).

How the values were obtained:
[1] = tested on: normal human lung fibroblasts; experiment: Procollagen Type 1 C-Peptide (PIPC) EIA in culture media of TGFβ-treated fibroblasts; type: cell-based; conditions: for % Renormalization Collagen: fibroblasts treated with TGFβ, procollagen ELISA
Protocol: (§1) Briefly, normal human lung fibroblasts (Lonza #CC-2512; cell passage numbers 2 through 5 were used for all experiments) were seeded (Day 0) and cultured in Dulbecco's modified Eagle medium (DMEM) supplemented with 10% fetal bovine serum (FBS), penicillin, streptomycin and glutamax (Invitrogen) at 37° C. in a humidified incubator with 5% CO2 overnight. On Day 1, cells were harvested, washed with phosphate buffered saline (PBS), and then incubated for 48 hours in fresh serum-free DMEM supplemented with penicillin, streptomycin, and glutamax.
(§2) After this 24 hour incubation, procollagen type 1 levels were measured by collecting culture media, centrifuging to pellet cellular debris, and stored at −80° C. Procollagen Type 1 C-Peptide (PIPC) was quantified using the (PIP) EIA kit (Clontech, Cat. No. MK101) according to manufacturer's instructions. The TGFβ-treated fibroblasts of this example were examined by ribosomal profiling (about 6×10^6 cells/10 cm plate) and western blot analysis (about 1×10^6 cells/well of a 6-well plate).
as §1, with “(Lonza;” for “(Lonza #CC-2512;”, “CO2 conditions” for “CO2”, “glutamax. On Day 3, cells were harvested, resuspended in fresh serum-free DMEM containing silvestrol (1, 5, 10, 75, 100, 500, or 1000 nM) and 10 ng/ml TGFβ, and cultured for 24 hours. Controls included untreated cells and cells treated with only TGFβ.” for “glutamax.”
as §2, with “kit (Clontech)” for “kit (Clontech, Cat. No. MK101)”, “example are” for “example were”
The levels of α-SMA and procollagen type 1, markers of fibroblast transdifferentiation into myofibroblasts and a surrogate for fibrotic disease progression, were measured after a 24 hour incubation of fibroblasts in the presence or absence of TGFβ sieIF4A1 or siCont. The knockdown efficiency was determined by quantitating the eIF4A mRNA level by qPCR (data not shown) and assessing the protein level by western analysis (see FIG. 11).

[2] = tested on: normal human lung fibroblasts; experiment: Western blot of α-smooth muscle actin (α-SMA) in TGFβ-treated fibroblasts; type: cell-based; conditions: for % Renormalization α-SMA: fibroblasts treated with TGFβ; for % Renormalization α-SMA / TGFβ-induced α-SMA protein level: western blot
Protocol: as §1, §2
(§3) TGFβ-dependent activation of the PI3K/Akt/mTOR and ERK pathways were also examined by western blot analysis (about 1×10^6 cells/well from a 6-well plate). Briefly, cells were washed with PBS and lysed in 1× cell lysis buffer (Cell Signaling Technology, Inc., Danvers, Mass.) for 15 minutes at 4° C. Lysates were briefly sonicated, clarified by centrifugation for 15 minutes at 14,000 rpm, and then supernatants were collected. Protein concentration in the soluble fraction was determined by BCA protein assay (Thermo Scientific, Rockford, Ill.). Samples of protein (20 μg) were resolved on 4-20% Bis-Tris gradient gel (Invitrogen, Carlsbad, Calif.) and transferred to nitrocellulose membrane. The resulting blots were blocked for 1 hour at room temperature with Odyssey blocking solution (LI-COR) and then incubated with primary antibodies at 4° C. overnight. The following day, each blot was washed three times for 10 minutes in TBST, and then incubated with goat anti-rabbit fluorescent conjugated secondary antibody (IRDye 800 CW at 1:20,000; LI-COR) for 1 hour at room temperature. The blots were washed and scanned, and then specific proteins were detected by using the LI-COR Odyssey infrared imager. The following antibodies were used at 1:1000 dilution: anti-α-actin (Sigma #A2547), anti-phospho-4EBP(Ser65), anti-phospho-rpS6(Ser235/236)(#4858), anti-phospho-ERK1/2(Thr202/Tyr204)(#4370), anti-phospho-p70S6K(Thr421/Ser424)(#9204), anti-phospho-pAKT(Ser473), anti-phospho-MNK(Thr197/202), and anti-β-actin (#4970). Unless otherwise indicated, the antibodies were from Cell Signaling Technology, Inc. (Danvers, Mass.).
as §1, with “(Lonza;” for “(Lonza #CC-2512;”, “CO2 conditions” for “CO2”, “glutamax. On Day 3, cells were harvested, resuspended in fresh serum-free DMEM containing silvestrol (1, 5, 10, 75, 100, 500, or 1000 nM) and 10 ng/ml TGFβ, and cultured for 24 hours. Controls included untreated cells and cells treated with only TGFβ.” for “glutamax.”
as §2, with “kit (Clontech)” for “kit (Clontech, Cat. No. MK101)”, “example are” for “example were”

[3] = tested on: AKT, 4EBP, S6K, and S6 of the mTOR pathway; experiment: Western blot of TGFβ-dependent phosphorylation of PI3K/Akt/mTOR and ERK pathway proteins; type: cell-based, human; conditions: PP242 0.625 μM, co-incubation with TGFβ, FIG. 2
Protocol: as §3, with “The following antibodies were used at 1:1000 dilution: anti-α-actin (Sigma #A2547), anti-phospho-4EBP(Ser65), anti-phospho-rpS6(Ser235/236)(#4858), anti-phospho-ERK1/2(Thr202/Tyr204)(#4370), anti-phospho-p70S6K(Thr421/Ser424)(#9204), anti-phospho-pAKT(Ser473), anti-phospho-MNK(Thr197/202), and anti-β-actin (#4970). Unless otherwise indicated, the antibodies were from Cell Signaling Technology, Inc. (Danvers, Mass.).” left out

SMILES	% Renormalization Collagen ([1]; 24 hours)	% Renormalization α-SMA ([2]; 24 hours)	EC50 ([1]; Homo sapiens, Fibroblast, 24 h, read-out: EC50 for blocking the TGFβ-induced increase in procollagen production) [nM]	extent of inhibition of procollagen at higher concentrations, of untreated TGFβ-transformed myofibroblasts ([1]; higher concentrations, saturable, 10 ng/ml TGFβ, 24 hours)	inhibition of procollagen relative to untreated, untransformed control fibroblasts ([1]; higher concentrations, 10 ng/ml TGFβ, 24 hours)	ratio of α-SMA to β-actin at higher silvestrol concentrations ([2]; 10 ng/ml TGFβ, 24 hours, FIG. 10)	TGFβ-induced α-SMA protein level ([2]; 10 ng/ml TGFβ, 24 hours)	EC50 ([2]; Homo sapiens, Fibroblast, 24 h, read-out: EC50 for reduction of the α-SMA protein level) [nM]	α-SMA level ([2]; PP242 0.625 μM, co-incubation with TGFβ, FIG. 2)	TGFβ-dependent increases in phosphorylation of AKT, 4EBP, S6K, and S6 [3]
CC(C=CC(=O)NO)=CC(C)C(=O)c1ccc(N(C)C)cc1 (stereo not shown) [TSA, 7-[4-(dimethylamino)phenyl]-N-hydroxy-4,6-dimethyl-7-oxohepta-2,4-dienamide]	+++ (+++ = >60%)	++ (++ = 30-60%)	–	–	–	–	–	–	–	–
Cc1ccc(=O)n(-c2ccccc2)c1 [pirfenidone, 5-methyl-1-phenylpyridin-2-one]	+++ (+++ = >60%)	+++ (+++ = >60%)	–	–	–	–	–	–	–	–
COC(=O)[C@H]1[C@@H](O)[C@@]2(O)c3c(OC)cc(O[C@@H]4O[C@@H]([C@H](O)CO)CO[C@H]4OC)cc3O[C@@]2(c2ccc(OC)cc2)[C@@H]1c1ccccc1 [Silvestrol]	+++ (+++ = >60%)	+++ (+++ = >60%)	~12	about 90%	about 80%	the same as in untransformed, untreated fibroblasts	reduction of the α-SMA protein level in a dose dependent manner	~11	–	–
Cc1cc(C2CCCCC2)n(O)c(=O)c1.NCCO [CPX, ciclopirox oloamine]	+++ (+++ = >60%)	+++ (+++ = >60%)	–	–	–	–	–	–	–	–
CC(C)n1nc(-c2cc3cc(O)ccc3[nH]2)c2c(N)ncnc21 [PP242]	+++ (+++ = >60%)	+++ (+++ = >60%)	–	–	–	–	reduction of the α-SMA protein level in a dose dependent manner	–	decrease in α-SMA to pretreatment levels	sufficient to abolish
